According to US20230103704A1, “HUMAN ANTI-IN[…] FOR THE […] OF IN[…] ISSUES” (priority 2020, published 2023):
“And” between values parts separate entries of the source, which are not always exact repeats. Equal entries are not always repeated. “Also recorded” adds a separate entry of the source. Marks after values point to notes of the source that are not given here.

Experiments:
[1] = Side effects of inhaled vasoactive intestinal peptide in previous trials; type: in vivo, human
[2] = system: ARDS; conditions: systemic administration, cited from earlier work
[3] = system: CoViD-19 infected patients at risk for ARDS; conditions: human, in vivo
[4] = system: PBMCs stimulated with beryllium; assay: Case: inhaled Aviptadil in a patient with Chronic Beryllium Disease, PBMC proliferation and cytokines; type: in vivo, human; conditions: after 6 months of treatment
Excerpt: A patient who was continuously exposed to beryllium at their workplace developed Chronic Beryllium Disease (CBD). This was diagnosed by tests performed on peripheral blood and bronchoalveolar lavage (BAL) mononuclear cells. […] A test called beryllium lymphocyte proliferation test (BeLPT) confirmed the CBD diagnosis. Due to the lack of available treatment options for CBD, the patient qualified for the Early Access Program treatment with inhaled Aviptadil. Therapy was initiated at a dose of 4×70 μg/ml per day dosage (280 μg per day with overnight break; nebulizer: M-neb-dose+, NEBU-TEC, Eisenfeld, Germany; mouthpiece; SK-211, NEBU-TEC, Eisenfeld, Germany). After 6 months of treatment, the proliferation rate of PBMCs stimulated with beryllium (0.1 mM) from the patient was inhibited by 100% by Aviptadil.

[5] = system: pulmonary arterial hypertension (PAH); assay: Case: inhaled Aviptadil in a patient with severe pulmonary arterial hypertension; type: in vivo, human
Protocol: A patient with severe pulmonary arterial hypertension (PAH), associated with collagen vascular disease, presented with signs of right ventricular decompensation, with an initial pulmonary vascular resistance (PVR) of 1413 dyn s cm^−5. The patient was treated before with bosentan for 3 months. This therapy was discontinued due to increased liver enzymes. PAH-specific medication was changed to triple therapy comprising inhaled iloprost and systemic sildenafil and ambrisentan. The patient developed peripheral edema, right ventricular hypertrophy, right ventricular systolic pressure (RVSP) 97 mm Hg, TAPSE (tricuspid annular plane systolic excursion) 17 mm, 6 min walking test 290 m. A repeated prostanoid therapy was refused by the patient. Due to the lack of other treatment options, treatment with inhaled Aviptadil was initiated at a dose of 4×140 μg/ml per day (560 μg/day) with overnight break, droplet characteristics of a MMAD of 3.4 μm per emitted particle (nebulizer: M-neb-dose+, NEBU-TEC, Eisenfeld, Germany). 90% of the dose were delivered at the mouthpiece (SK-211, NEBU-TEC, Eisenfeld, Germany). Inhalation time per treatment was 12 minutes. […] 6 months later the 6 min walking test was increased to 340 m, 12 months later to 410 m. 3 years later an ongoing improvement was noted, with 6 min walking distances between 430-475 m and still persistent PAH, but good right ventricular function of TAPSE 22 mm. This dramatic improvement of the patient over time is attributed to the effect of inhaled Aviptadil.

[6] = system: CoViD-19; assay: Individual curing attempts for CoViD-19 with Aviptadil, oxygen demand; type: in vivo, human
Protocol: Example 18: Individual Curing Attempts for the Therapy of CoViD-19 with Aviptadil 3×66 μg Daily Per Inhalationem (Oxygen Demand Via Oxygen Nasal Cannula in L Per Minute (l/min))

[7] = system: sarcoidosis of the lung; assay: Case: inhaled Aviptadil in a patient with severe sarcoidosis of the lung (KSQ); type: in vivo, human; conditions: for King's College Sarcoidosis Questionnaire (KSQ) score: 280 μg per day inhaled
Protocol: A patient with severe sarcoidosis of the lung indicated for therapeutic treatment suffered from unproductive chronic cough, dyspnea on exertion and chronic fatigue. […] Therapy was initiated at a dose of 4×70 μg/ml per day dosage (280 μg per day with overnight break; nebulizer: M-neb-dose+, NEBU-TEC, Eisenfeld, Germany; mouthpiece; SK-211, NEBU-TEC, Eisenfeld, Germany). Therapeutic benefit was measured by the newly established and well validated quality of life questionnaire for sarcoidosis, the King's College Sarcoidosis Questionnaire (KSQ; Patel et al. (2013) Thorax 68: 57-65). Therein an increase in score by 5 over time indicates significant clinical improvement. The patient started treatment at a score of 66, improved after 3 months of treatment to score 71, and after 6 months of treatment to score 77, which is 11 points higher than at beginning of treatment with Aviptadil.

[8] = system: Patients with SARS-CoV-2; assay: Study of aviptadil inhalation versus placebo in CoViD-19 patients; type: in vivo, human; conditions: during treatment, 28 days inhalative
Excerpt: A study examines the positive effect of aviptadil inhalation (dosage example 17) in CoViD-19 patients.
Patients with SARS-CoV-2 are randomized into two groups, one with 28 days aviptadil inhalative, one with 28 days placebo inhalative.

[9] = type: physicochemical
Protocol: Aviptadil can be obtained, e.g., from Bachem AG, Bubendorf, Switzerland, in GMP quality.
The experimental procedure was carried out pursuant to Ph. Eur. 2.9.44 (Preparations for Nebulisation: Characterisation). A cascade impactor (Next Generation Impactor (NGI), Copley Scientific Ltd., Nottingham, UK) was used to determine the respective percentage for each fraction of the nebulized particles.
The thus generated aerosol was delivered to the cascade impactor by means of a mouthpiece (SK-211, NEBU-TEC, Eisenfeld, Germany).
The nebulization chamber (yellow stamp, 250 μl liquid discharge) was filled. The puff profile configured at the breath simulator was chosen in such a way that a correct simulation of inhalation by means of the nebulizer was ensured. The corresponding time was recorded.
Single values obtained for each cascade were added. […] MMAD, FPF and FPM were calculated from the obtained values: […]

[10] = may be as low as; cited from earlier work
[11] = Aviptadil aerosol from M-neb dose+ MN-300/8 tested with COPLEY next generation impactor; type: physicochemical
Protocol: Using the M-neb® dose^+ mesh nebulizer MN-300/8 and the respective mouthpiece, Aviptadil has been tested with the COPLEY next generation impactor (NGI). The mass median aerodynamic diameter (MMD) of Aviptadil dissolved in 0.9% NaCl was 3.3-3.5 μm per emitted particle. The number of those particles <5 μm=85.70%, and the dose delivered at the mouthpiece was 90.2% of the tested dosages.
Aviptadil has been tested in 0.9% NaCl solution at different drug concentrations (35 μg/ml, 70 μg/ml, 140 μg/ml, 200 μg/ml, 250 μg/ml, 400 μg/ml).

[12] = estimated values with 25 l/min Highflow with oxygen from 72 to 44%
[13] = oxygen nasal cannula, 3×66 μg daily, one table line per patient
[14] = oxygen nasal cannula, 3×66 μg daily, one table line per patient, listed as Aviptadil
[15] = 0.1 mg/ml in physiological saline

CC[C@H](C)[C@H](NC(=O)[C@H](CO)NC(=O)[C@H](CC(N)=O)NC(=O)[C@H](CC(C)C)NC(=O)[C@H](Cc1ccc(O)cc1)NC(=O)[C@H](CCCCN)NC(=O)[C@H](CCCCN)NC(=O)[C@@H](NC(=O)[C@H](C)NC(=O)[C@H](CCSC)NC(=O)[C@H](CCC(N)=O)NC(=O)[C@H](CCCCN)NC(=O)[C@H](CCCNC(=N)N)NC(=O)[C@H](CC(C)C)NC(=O)[C@H](CCCNC(=N)N)NC(=O)[C@@H](NC(=O)[C@H](Cc1ccc(O)cc1)NC(=O)[C@H](CC(N)=O)NC(=O)[C@H](CC(=O)O)NC(=O)[C@@H](NC(=O)[C@H](Cc1ccccc1)NC(=O)[C@@H](NC(=O)[C@H](C)NC(=O)[C@H](CC(=O)O)NC(=O)[C@H](CO)NC(=O)[C@@H](N)Cc1c[nH]cn1)C(C)C)[C@@H](C)O)[C@@H](C)O)C(C)C)C(=O)N[C@@H](CC(C)C)C(=O)N[C@@H](CC(N)=O)C(N)=O [vasoactive intestinal peptide]
side effects found with systemic administration [1]: lacks the side effects; also recorded: lacks these side effects
systemic side effects ([2]; some of the patients): hypotension
effect on ARDS ([2]; trial discontinued): lack of positive effect
Arterio-alveolar oxygen difference (AaDO2) [3]: lower
need of oxygen supplementation [3]: lower need of oxygen supplementation
oxygenation (SpO2/FiO2 quotient) [3]: better oxygenation
rate of progression to ARDS [3]: reduced rate of progression to ARDS
respiratory rate [3]: decrease of respiratory rate
production of cytokines TNF-alpha, IL-17 [4]: significantly diminished
clinical course ([5]; 560 μg/day inhaled): gradual improvement
6 min walking distances ([5]; 3 years later): 430-475 m
TAPSE ([5]; 3 years later, 17 mm before): 22 mm
6 min walking test ([5]; 6 months later, 560 μg/day inhaled, 290 m before): 340 m
6 min walking test ([5]; 12 months later, 560 μg/day inhaled): 410 m
O2 Day 1 [6, 12]: 15* l/min
O2 Day 2 [6, 12]: 15* l/min
O2 Day 3 [6, 12]: 14* l/min
O2 Day 4 [6, 12]: 11* l/min
O2 Day 5 [6, 12]: 6* l/min
O2 Day 6 [6, 12]: 6* l/min
O2 Day 11 [6, 13]: 6 L/min
O2 Day 12 [6, 13]: 3.3 L/min
O2 Day 13 [6, 13]: 2 L/min
O2 Day 14 [6, 13]: 1.5 L/min
O2 Day 15 [6, 13]: 1 L/min
O2 Day 16 [6, 13]: 0.5 L/min
O2 Day 17 [6, 13]: 0 L/min
O2 Day 1 [6, 14]: 5 L/min and 3 L/min and 2 L/min and 1.5 L/min
O2 Day 2 [6, 14]: 4 l/min and 3 l/min (2×) and 2 l/min
O2 Day 3 [6, 14]: 6 l/min and 4 l/min and 3 l/min (2×) and 2 l/min
O2 Day 4 [6, 14]: 5 l/min and 4 l/min and 2 l/min (3×)
O2 Day 5 [6, 14]: 4 l/min and 3 l/min and 1 l/min (2×) and 0 l/min
O2 Day 6 [6, 14]: 3 l/min and 2 l/min (2×) and 0 l/min
O2 Day 7 [6, 14]: 2 l/min (2×) and 1 l/min and 4 l/min
O2 Day 8 [6, 14]: 0 l/min and 1 l/min (2×) and 5.5 l/min
O2 Day 9 [6, 14]: 1 l/min (2×) and 4.7 l/min
O2 Day 10 [6, 14]: 0 l/min (2×) and 5.5 l/min
King's College Sarcoidosis Questionnaire (KSQ) score ([7]; after 3 months, score 66 at start): 71
KSQ score higher than at beginning of treatment ([7]; after 6 months): 11 points
King's College Sarcoidosis Questionnaire (KSQ) score ([7]; after 6 months): 77
T-cells expressing CD28 promoting inflammation [8]: diminished
TNF release in the lung [8]: diminished
regulatory T-cells dampening inflammation [8]: increased
MMAD [9, 15]: 3.40 μm
released dosage at the mouthpiece as share of the nominal value [9, 15]: 80%
released dosage ([9]; 0.1 mg/ml in physiological saline, at the mouthpiece): 0.08 mg
MMAD per emitted particle ([9]; Example 11, 140 μg/ml, M-neb-dose+): 3.4 μm
dose delivered at the mouthpiece ([9]; Example 11, mouthpiece SK-211): 90%
time of aerosol release ([9]; corresponds to 30 strokes/breaths): 3 min
half-life in blood [10]: about 2 minutes
dose delivered at the mouthpiece, of the tested dosages [11]: 90.2%
linearity of aerosol output rates at the mouthpiece over increasing numbers of breathing cycles ([11]; 35 to 400 μg/ml in 0.9% NaCl): excellent linearity
mass median aerodynamic diameter (MMD) per emitted particle ([11]; dissolved in 0.9% NaCl): 3.3-3.5 μm
number of particles <5 μm ([11]; dissolved in 0.9% NaCl): 85.70%
